The source of these data is patent publication US20250154288A1, “CYTOTOXICITY TARGETING CHIMERAS FOR C-C CHEMOKINE RECEPTOR 2-EXPRESSING CELLS” (GLAXOSMITHKLINE INTELLECTUAL PROPERTY DEVELOPMENT LIMITED, priority 2022, published 2025).

The test system of data set [1] is CCR2 expressing cells (CD11b+Ly6c+ Hi) in peripheral blood. In words: In Vivo Depletion Assay (flow cytometry of peripheral blood). Details: species or system Human CCR2 (hCCR2) knock-in mice. Conditions: hCCR2 knock-in mice; IV 0.1 mpk compound + 10 mpk anti-cotinine antibody (mouse IgG2a Fc); peripheral blood at 48 hr. In general terms: Flow cytometry measures light scatter and fluorescence of single cells or particles in a stream.

Data set [2] in a line: Blood drug concentration analysis (LC-MS/MS) in In Vivo Depletion Assay. Conditions: human CCR2 (hCCR2) knock-in, 057 background, mouse, whole blood, hCCR2 knock-in mice, IV 0.1 mpk compound + 10 mpk anti-cotinine antibody, 48 hours post-dose, read-out: Exposure of Compound of Formula (I) 48 hours post-dose.

Structures can show the parent of a compound that is named as a salt.

On to `CO[C@H]1COCC[C@H]1N[C@H]1CC[C@@](CCCNC(=O)[C@H]2CC[C@@H](NC(=O)CCOCCOCCNC(=O)CCNC(=O)[C@H]3CC(=O)N(C)[C@@H]3c3cccnc3)CC2)(C(=O)N2CCc3ncc(C(F)(F)F)cc3C2)C1` [Example 19, (2S,3S)—N-(3-((2-(2-(3-(((1s,4s)-4-((3-((1R,3S)-3-(((3R,4R)-3-Methoxytetrahydro-2H-pyran-4-yl)amino)-1-(3-(trifluoromethyl)-5,6,7,8-tetrahydro-1,6-naphthyridine-6-carbonyl)cyclopentyl)propyl)carbamoyl)cyclohexyl)amino)-3-oxopropoxy)ethoxy)ethyl)amino)-3-oxopropyl)-1-methyl-5-oxo-2-(pyridin-3-yl)pyrrolidine-3-carboxamide], for which the “% Depletion of CCR2 expressing cells” value in data set [1] worked out at 85.39%. Besides, the concentration at 48 h in data set [2] came out at 54.2 ng/mL.
On the same counts, the results for `CO[C@@H]1COCC[C@@H]1N[C@@H]1CC[C@](CCCNC(=O)CCOCCOCCO[C@H]2CC[C@H](OCCNC(=O)[C@H]3CC(=O)N(C)[C@@H]3c3cccnc3)CC2)(C(=O)N2CCc3ncc(C(F)(F)F)cc3C2)C1` [Example 20, ((2S,3S)—N-(2-(((1r,4S)-4-(2-(2-(3-((3-((1S,3R)-3-(((3S,4S)-3-Methoxytetrahydro-2H-pyran-4-yl)amino)-1-(3-(trifluoromethyl)-5,6,7,8-tetrahydro-1,6-naphthyridine-6-carbonyl)cyclopentyl)propyl)amino)-3-oxopropoxy)ethoxy)ethoxy)cyclohexyl)oxy)ethyl)-1-methyl-5-oxo-2-(pyridin-3-yl)pyrrolidine-3-carboxamide, Formic acid salt] are 87.3% and 74.6 ng/mL.
In the case of `CO[C@@H]1COCC[C@@H]1N[C@@H]1CC[C@@](C(=O)N2CCc3nc(CCCCOc4cccc(C(=O)NCCOCCOCCOCCOCCOCCOCCOCCOCCOCCNC(=O)[C@H]5CC(=O)N(C)[C@@H]5c5cccnc5)c4)c(C(F)(F)F)cc3C2)(C(C)C)C1` [Example 22, (2S,3S)—N-(1-(3-(4-(6-((1S,3R)-1-Isopropyl-3-(((3S,4S)-3-methoxytetrahydro-2H-pyran-4-yl)amino)cyclopentane-1-carbonyl)-3-(trifluoromethyl)-5,6,7,8-tetrahydro-1,6-naphthyridin-2-yl)butoxy)phenyl)-1-oxo-5,8,11,14,17,20,23,26,29-nonaoxa-2-azahentriacontan-31-yl)-1-methyl-5-oxo-2-(pyridin-3-yl)pyrrolidine-3-carboxamide], the “% Depletion of CCR2 expressing cells” value in data set [1] was determined as 89%. Further, the concentration at 48 h in data set [2] was found to be 15.5 ng/mL.
